Results: patent US20090215882A1, “LYOPHILIZED SOLID TAXANE COMPOSITION, A PROCESS FOR PREPARING SAID SOLID COMPOSITION, A PHARMACEUTICAL FORMULATION AND A KIT FOR SAID FORMULATION” (ERIOCHEM, S.A., priority 2006, published 2009)

Assays:
[1] = Solubility / dissolution in aqueous solutions without organic solvent; format: physicochemical; conditions: for dissolution of the intermediate lyophilized taxane in aqueous Solutol HS15 solution: aqueous Solutol HS15 mixture with excipient (mannitol/citric acid or povidone), no organic solvent
Method: The intermediate lyophilized taxane is dissolved in aqueous solutions of polymers or a mixture of said polymers, namely Lutrol™ F68, Solutol™ HS15, povidone K12 PF or K17 PF.

[2] = Apparent density of the lyophilizate; format: physicochemical; conditions: intermediate lyophilized taxane (first lyophilization from organic solvent)
Description: The apparent density of the lyophilizate is defined as the quotient between the mass of the lyophilization cake in grams and its volume in milliliters.
The apparent density of the lyophilizates has been carefully assessed, and after a great number of experiments the apparent density values in which the technical effects of the invention are possible such as easy reconstitution of said solid composition of lyophilized taxane in an aqueous solution free from organic solvent were obtained. […] In other words, the lower the apparent density of the lyophilization cake, the fastest its dissolution. Also, if the apparent density of the solid composition of lyophilized taxane of the present invention is very low, the concentration of the tensoactive is not enough to maintain said taxane in solution, and said taxane precipitates rapidly.

[3] = Chemical degradation of docetaxel in aqueous tensoactive solution; format: physicochemical; conditions: pH maintained at values higher than 6
[4] = after administration to mammals, compared to polysorbates; cited from earlier work
[5] = estimated by the World Health Organization; cited from earlier work

| dissolution of the intermediate lyophilized taxane in aqueous Solutol HS15 solution [1] | apparent density [2] [g/mL] | Molecule | other results |
| --- | --- | --- | --- |
| readily dissolved | 0.025 | CC(=O)O[C@@]12CO[C@@H]1C[C@H](O)[C@@]1(C)C(=O)[C@H](O)C3=C(C)[C@@H](OC(=O)[C@H](O)[C@@H](NC(=O)OC(C)(C)C)c4ccccc4)C[C@@](O)([C@@H](OC(=O)c4ccccc4)[C@H]21)C3(C)C [Example 1, docetaxel] | – |
| readily dissolved | 0.014 | CC(=O)O[C@@]12CO[C@@H]1C[C@H](O)[C@@]1(C)C(=O)[C@H](O)C3=C(C)[C@@H](OC(=O)[C@H](O)[C@@H](NC(=O)OC(C)(C)C)c4ccccc4)C[C@@](O)([C@@H](OC(=O)c4ccccc4)[C@H]21)C3(C)C [Example 2, docetaxel] | – |
| – | – | CC(=O)O[C@@]12CO[C@@H]1C[C@H](O)[C@@]1(C)C(=O)[C@H](O)C3=C(C)[C@@H](OC(=O)[C@H](O)[C@@H](NC(=O)OC(C)(C)C)c4ccccc4)C[C@@](O)([C@@H](OC(=O)c4ccccc4)[C@H]21)C3(C)C [docetaxel] | solubility in aqueous solutions ([1]; commercially available API, absence of added organic solvents): not soluble; degradation to 7-epidocetaxel [3]: ≤ 60% |
| – | – | Polyethylene glycol-15-hydroxystearate [Solutol HS15] | histaminic release [4]: very low histaminic release |
| – | – | polysorbate 80 | maximum daily dose [5]: 25 mg/kg of body weight |
